Reference: ChEMBL document CHEMBL1770111, “A series of structurally simple chloroquine chemosensitizing dibemethin derivatives that inhibit chloroquine transport by PfCRT” (Eur J Med Chem, 2011)
The source made the active and inactive calls. The calls are words filed in the database; no cut-off is given here.

Legend:
Plasmodium falciparum [1] = test: Antiplasmodial activity against chloroquine-resistant Plasmodium falciparum W2 by parasite lactate dehydrogenase assay; type: functional, organism-based
Plasmodium falciparum [2] = test: Resistance modification index, ratio of compound IC10 to chloroquine IC50 in presence of IC10 compound for chloroquine-resistant Plasmodium falciparum W2; type: functional
Plasmodium falciparum [3] = test: Resistance modification index, ratio of IC50 for chloroquine in presence of compound to IC50 for chloroquine alone for chloroquine-resistant Plasmodium falciparum W2; type: functional
Plasmodium falciparum [4] = test: Inhibition of chloroquine-resistant Plasmodium falciparum […] CRT expressed in Xenopus laevis oocytes assessed as [3H]-chloroquine uptake after 1 to 2 hrs; conditions: Oocyte
Plasmodium falciparum [5] = test: Antiplasmodial activity against chloroquine-resistant Plasmodium falciparum W2 at 15.2 uM by parasite lactate dehydrogenase assay; type: functional, organism-based

SMILES | IC10 (Plasmodium falciparum [1]) [µM] | IC50 (Plasmodium falciparum [1]) [µM] | Ratio IC50 (Plasmodium falciparum [2]) | Ratio IC50 (Plasmodium falciparum [3]) | IC50 (Plasmodium falciparum [4]) [µM] | IC50 (Plasmodium falciparum [4]; read-out: IC50) [µM] | inhibition (Plasmodium falciparum [5])
CN(Cc1ccc(Cl)cc1)Cc1cccc(CNC=O)c1 | 4 | 16 | 0.51 | – | – | – | –
COc1ccc(CN(C)Cc2ccccc2CN)cc1 | – | > 233 | – | 0.35 | – | – | –
CN(Cc1ccc(N(C)C)cc1)Cc1ccccc1CNC=O | 15 | 42 | 0.49 | 1 | – | – | –
CN(Cc1ccc(N(C)C)cc1)Cc1ccccc1CN | – | 37 | – | 0.36 | – | – | –
COc1ccc(CN(C)Cc2ccc(CN)cc2)cc1 | – | 91 | – | 0.33 | – | – | –
CN(Cc1ccccc1)Cc1cccc(CN)c1 | – | 2.8 | – | 0.08 | – | – | –
COc1ccc(CCN(C)CCCC(C#N)(c2ccc(OC)c(OC)c2)C(C)C)cc1OC (configuration not stated) [VERAPAMIL] | – | – | – | 0.26 | 30 | – | –
COc1ccc(CN(C)Cc2cccc(CN)c2)cc1 | – | 6.8 | – | 0.25 | – | – | –
CN(Cc1ccccc1)Cc1cccc(CNC=O)c1 | 9.7 | 21 | 0.29 | 0.84 | – | – | –
CN(Cc1ccccc1)Cc1ccccc1CNC=O | 1.7 | 11 | 0.44 | 0.75 | – | – | –
CN(Cc1ccc(Cl)cc1)Cc1ccccc1CN | – | 5.7 | – | 0.096 | – | – | –
CN(Cc1ccc(Cl)cc1)Cc1cccc(CN)c1 | – | 30 | – | 0.31 | – | 101 | –
CN(Cc1ccccc1)Cc1ccc(CNC=O)cc1 | 18 | 56 | 0.43 | 1.13 | – | – | –
CN(Cc1ccc(CN)cc1)Cc1ccc(N(C)C)cc1 | – | 11.7 | – | 0.21 | – | – | –
CN(Cc1ccccc1)Cc1ccccc1CN | – | 4.1 | – | 0.03 | – | 24 | –
CN(Cc1ccccc1)Cc1ccc(CN)cc1 | – | 29 | – | 0.24 | – | – | –
CN(Cc1ccc(Cl)cc1)Cc1ccc(CNC=O)cc1 | 5.4 | 29 | 0.46 | 0.9 | – | – | –
COc1ccc(CN(C)Cc2ccc(CNC=O)cc2)cc1 | 16 | 37 | 0.46 | 1.22 | – | – | –
COc1ccc(CN(C)Cc2cccc(CNC=O)c2)cc1 | 9 | 48 | 0.51 | 1.19 | – | – | –
CN(Cc1ccc(N(C)C)cc1)Cc1cccc(CNC=O)c1 | – | 17 | 1 | 0.62 | – | – | inactive
COc1ccc(CN(C)Cc2ccccc2CNC=O)cc1 | 12 | 29 | 0.32 | 1.22 | – | – | –
CN(Cc1ccc(Cl)cc1)Cc1ccc(CN)cc1 | – | 63 | – | 0.25 | – | 140 | –
CN(Cc1ccc(N(C)C)cc1)Cc1cccc(CN)c1 | – | 30 | – | 0.24 | – | – | –
CN(Cc1ccc(Cl)cc1)Cc1ccccc1CNC=O | 12 | 119 | 0.34 | 1.07 | – | – | –
CN(Cc1ccc(CNC=O)cc1)Cc1ccc(N(C)C)cc1 | 15.2 | 33 | 0.46 | 1.36 | – | 657 | –
